“And” between values parts separate entries of the source, which are not always exact repeats. Equal entries are not always repeated.
Columns and labels:
[1] = test system: histone acetylation (Ac-H3K27) in circulating T cells; experiment: histone acetylation in circulating T cells (PBMC flow cytometry); type: in vivo, human
Protocol: Blood samples for acetylated (Ac)-H3K27, Ac-H3K9, and Ac-lysine levels in peripheral blood mononuclear cells (PBMCs) were collected in cycle 1. Samples were collected immediately prior to dosing and at 2, 8, and 24 h post-dosing on days 1 and 15. Blood samples were processed within 3 h of collection, and isolated PBMCs were washed and resuspended in cell cell-freezing medium. Cells were stored at ≤−70 °C prior to shipment to the University of Texas at Austin Dell Medical School (UTDMS) for analysis. Briefly, patient PBMCs were thawed at 37 °C for 5 min, washed with flow wash buffer containing PBS/2% FBS/5 mM EDTA, and stained for 30 min on ice with the following: fixable viability dye (BioLegend 423106; Zombie NIR^TM, San Diego, CA, USA), CD3 (Biolegend; Clone OKT3), CD4 (BioLegend; Clone SK3), and CD8 (Biolegend; Clone RPA-T8). All samples were washed twice before being fixed and permeabilized using a BD Biosciences (Hunt Valley, MD, USA) Cytofix/Cytoperm™ kit (RRID: AB_2869008) according to the manufacturer’s protocol and stained for 30 min for intracellular acetylation markers: Ac-H3K27 (Cell Signaling Technology; Clone D5E4), Ac-H3K9 (Cell Signaling Technology, Danvers, MA, USA; Clone CFB11), and total Ac-lysine (BioLegend; Clone 15G10). All cells were analyzed on a Cytek Aurora (5 L 16UV-16V-14B-10YG-8R). Spectral unmixing was performed based on fluorophore-specific single-color cells and compensation bead (ThermoFisher 01-2222-41, Waltham, MA, USA) controls using SpectroFlo© software (v3). All post-acquisition analyses were performed using FlowJo software (v10.3). Results are shown as fold-changes from pre-dose values for each patient and day.
Descriptive statistics were used for baseline characteristics, safety assessments, pharmacokinetic variables, exploratory assessments, and efficacy analysis, including the duration of response and time to progression. Tables were used to summarize the data across the cohort of patients and various dosing groups. Geometric means were used to calculate plasma concentration-time profiles. […]

[2] = test system: advanced solid tumors; experiment: antitumor activity by RECIST 1.1; type: in vivo, human
Text: Patients were continuously evaluated for adverse events throughout the study using the Common Terminology Criteria of Adverse Events (CTCAE v. 5). The patients underwent a clinical history and physical examination, an ECOG PS, a complete blood count (CBCs), chemistry, coagulation studies, urinalysis, a serum pregnancy test (as applicable), a triplicate ECG, an ophthalmology examination, and baseline tumor assessment at screening. During cycle 1, weekly history and physical examination, CBC, chemistry, coagulation parameters, urinalysis, and triplicate ECGs were performed; in subsequent cycles, weekly labs were limited to a CBC. Repeat ophthalmology examinations were performed at cycle 3, day 1, and at the end of treatment. Repeat tumor assessment was performed every 2 cycles (6 weeks) in accordance with RECIST 1.1. Descriptive statistics were used for baseline characteristics, safety assessments, pharmacokinetic variables, exploratory assessments, and efficacy analysis, including the duration of response and time to progression. Tables were used to summarize the data across the cohort of patients and various dosing groups. Geometric means were used to calculate plasma concentration-time profiles. Fold changes from baseline were used to calculate acetylation.

[3] = test system: metastatic NRAS-mutated melanoma; parameters: method as in earlier work; details: combination with binimetinib, phase 2 data, previously treated with immunotherapy; cited from earlier work

CC(C)[C@H](N)C(=O)SCC/C=C/[C@@H]1CC(=O)NCc2nc(cs2)C(=O)NC(C)(C)C(=O)N[C@@H](C(C)C)C(=O)O1 [OKI-179, Bocodepsin]
increase in histone acetylation ([1]; 300 mg doses, 2 h after dosing, days 1 and 15, T cells): 6 fold | increase in H3K27 acetylation in CD4 T cells ([1]; doses >200 mg): greater than 6 fold | increase in H3K27 acetylation in circulating T cells ([1]; doses of 200 mg or greater): > 6 fold | partial or complete response ([2]; RECIST 1.1): No partial or complete response | stable disease as the best response ([2]; heavily pretreated patient population): 39% | patients with stable disease for > 5 months ([2]; in vivo): Six | time in the study with stable disease ([2]; two patients with platinum-resistant serous ovarian cancer, one value each): 7.5 months and 14.7 months | overall response rate (ORR) [3]: 38%
